Assay [1] deals with STAT3 (Signal transducer and activator of transcription 3). The assay is described as follows: Expression of psoriasis-related transcription factor STAT3 in induced inflammatory condition. It counts as cell-based, human. The conditions noted are these: IL-17A/TNFα- or IL-17A/IFNγ-induced inflammatory condition.
For assay [2], the system named is IL-6 (interleukin 6). Put plainly: ELISA for IL-6 in HEKa cells under inflammatory condition. In kind it is cell-based, human. The conditions noted are these: TNF-α/IFN-γ or IL-17A/IL-22 induced inflammatory condition, 10·M, FIGS. 5 to 7. On the procedure: In order to analyze whether treatment of Compound 8 has an atopy alleviation effect, ELISA (enzyme-linked immunosorbent assay) for IL-6 (interleukin 6) and IL-8 (interleukin 8) which are very closely related to atopic inflammation and psoriasis was performed.
As the specific experimental method, HEKa cells (Human Epidermal keratinocytes, adult), human-derived epidermal keratinocytes were seeded on a 24 well plate at a density of 1×10^5 cells, and cultured in an EpiLife medium (1× Human keratinocyte Growth supplement, 1× antibiotics) in an incubator under 37° C. and 5% CO2 for 24 hours.
After culturing, while an inflammatory condition was induced by treatment with either TNF-α (Tumor necrosis factor-α)/IFN-γ (interferon-γ) or IL-17A (interleukin-17A)/IL-22 (interleukin-22) in each well, further treatment was performed with Compound 8 of the present invention at a concentration of 10·M, and then the cells were incubated for a certain period. After completing culturing, media were collected, and then ELISA for each IL-6 and IL-8 was carried out.

The results in this text go back to patent US10617662B2, “Autophagy activation-induced compound for improving skin inflammation for aging” (INCOSPHARM CORPORATION, priority 2017, dated 2020).

Take `CCCCCCCCCCCCCCCC(=O)NCCCC[C@H](NC(=O)[C@H](CCCCN(CC(=O)O)CC(=O)O)N(CC(=O)O)CC(=O)O)C(=O)O` [Compound 8]: the “expression level of STAT3” value in assay [1] is “reduced”. For the same compound, in assay [2], the “secretion of IL-6” value is “significantly reduced”.
